The text below walks through data of publication PMC12073298, “Design, Synthesis, and Biological Evaluation of Naphthoquinone Salts as Anticancer Agents” (Molecules, 2025).

The test system of assay [1] is human endometrial cancer cells (HEC1A). Put plainly: MTT cell viability assay, HEC1A cells. The class given is cell-based. Here is the method:
(§1) The cytotoxic effects of the synthesized salt compounds were assessed against human endometrial cancer cells (HEC1A) and normal endometrial stromal cells (MAD11) using the MTT cell viability assay. BH10 was used as the reference compound.
(§2) Reagents and equipment: phosphate-buffered saline (PBS) (Sigma Aldrich, St. Louis, MO, USA), 10× Trypsin-EDTA solution (Sigma Aldrich, 59418C), Dulbecco’s Modified Eagle’s Medium (Sigma Aldrich), foetal bovine serum (FBS), and 100× penicillin-streptomycin solution (Sigma Aldrich P4333). The MTT reagent was prepared by dissolving 5 mg/mL MTT powder in sterile PBS, followed by filtration, whereas the MTT solvent contained 4 mM HCl and 0.1% Nonidet P-40 in isopropanol. Dimethyl sulfoxide (DMSO) was also sourced from Sigma Aldrich. Absorbance measurements were acquired using Kaleido 1.0 software coupled with an EnSight™ HH3400 Multimode Plate Reader (PerkinElmer, Waltham, MA, USA). HEC-1-A endometrial cancer cells were obtained from ATCC, while MAD11 endometrial stromal cells were provided by Dr. Hui Li (University of Virginia). MAD11 cells, derived from non-cancerous donors, were immortalized via human telomerase reverse transcriptase (hTERT).
(§3) Method: The methods were adapted from Byrne et al. (2014). Cells were cultured in DMEM supplemented with 10% FBS and 1% Pen-Strep solution (100 U/mL penicillin and 0.1 mg/mL streptomycin). Upon reaching ~70% confluence, the cells were washed with sterile PBS and detached using a 1× trypsin-EDTA solution. The cells were then resuspended in culture media, counted, and seeded into sterile 96-well tissue culture plates (2500 cells per well for MAD11; 5000 cells per well for HEC-1-A). The cells were incubated at 37 °C with 5% CO2 for 24 h prior to drug treatment. Drugs were serially diluted in culture medium to final concentrations of 100, 50, 25, 12.5, 6.3, 3.1, 1.6, and 0.8 µM per well and applied in triplicate. For compounds 7a–f and 15, as their IC₅₀ values were below 0.8 µM, an additional set of three biological replicates was conducted using a lower concentration range (500, 250, 125, 63, 31, 16, 8, and 4 nM). To minimize variations due to DMSO (vehicle), both drug dilutions and control wells received the same final concentration of DMSO. After 48 h of incubation at 37 °C with 5% CO2, cell viability was assessed by adding 20 µL/well of MTT reagent for 3 h. Supernatants were aspirated, and formazan crystals were dissolved in MTT solvent before absorbance was measured at 590/620 nm using an EnSight™ HH3400 Multimode Plate Reader. Cell viability was expressed as a percentage of the vehicle (DMSO-treated) control, with results reported as mean ± SEM from three independent experiments. IC50 values were determined using GraphPad Prism 9.

In assay [2] the test system is normal endometrial stromal cells (MAD11). The experiment in a line: MTT cell viability assay, MAD11 cells. In kind it is cell-based, human. The note with it: Homo sapiens, MAD11, 48 h, MAD11 non-cancerous cells, n = 3 biological replicates, read-out: Mean IC50 (μM) MAD11 ± SD. How it is done:
as §1, §2, §3

In assay [3] the test system is human endometrial cancer cells (HEC1A). The note with it: cited from earlier work; for selectivity of parent naphthoimidazole analogues / IC50: previous study, non-salt parent compounds; for IC50: read-out: IC50 of parent naphthoimidazole analogues.
Assay [4] deals with Indoleamine 2,3-dioxygenase 1 (IDO1). Further details: method as in ref 9-10 (a number printed in a supplementary file, which may have a reference list of its own: not looked up in the article's list). The note with it: cited from earlier work.
The next assay has as its system Hexokinase II. Further details: method as in ref 2-4 (a number printed in a supplementary file, which may have a reference list of its own: not looked up in the article's list). The note with it: cited from earlier work.
For another assay, the system named is GLUT1. More on the design: method as in ref 5-6 (a number printed in a supplementary file, which may have a reference list of its own: not looked up in the article's list). The note with it: cited from earlier work.
In assay [5] the test system is Pyruvate Kinase M2 (PKM2). Further details: method as in ref 7-8 (a number printed in a supplementary file, which may have a reference list of its own: not looked up in the article's list). The note with it: cited from earlier work.
Assay [6] concerns Survivin suppression (indirect). More on the design: method as in ref 13 (a number printed in a supplementary file, which may have a reference list of its own: not looked up in the article's list). The note with it: cited from earlier work.
In assay [7] the test system is receptor-interacting protein kinase 2 (RIPK2). Further details: method as in ref 11-12 (a number printed in a supplementary file, which may have a reference list of its own: not looked up in the article's list). The note with it: cited from earlier work.
Where [8] appears, read: reported target as listed, test system not given, read-out: IC50 (Table S1).

Like-named read-outs stand apart in the source and are kept apart here.

Regarding `O=C1C(Cl)=C(NCCN2CCOCC2)C(=O)c2ccccc21` [BH10, reference compound], the IC50 was found to be 11.8 ± 5.19 µM in assay [1] (Homo sapiens, HEC-1-A, 48 h, HEC1A cells, MTT, 48 h, n = 3 biological replicates, read-out: Mean IC50 (μM) HEC1A ± SD) and 28.2 ± 12.2 µM in assay [2]. The “Selectivity Ratio” value in assay [1] (IC50 value from MAD11 cells divided by the IC50 value from HEC1A cells) was 2.38. Also, the “selective toxicity (IC50 value in non-cancerous cells/IC50 value of cancer cells)” value in [3] (hit compound, earlier work) was 2.38.
On to `O=C1c2ccccc2C(=O)c2c1nc(C(F)(F)F)n2Cc1cn(CCN2CCOCC2)nn1` [Compound 16a], for which, in assay [3], the “selectivity of parent naphthoimidazole analogues” value was 1.73 and the IC50 was 18.1 µM.
On to `O=C1c2ccccc2C(=O)c2c1nc(C(F)(F)F)n2Cc1cn(CCN2CCCCC2)nn1` [Compound 16b], for which the “selectivity of parent naphthoimidazole analogues” value in assay [3] is listed as 2.01.
`O=C1c2ccccc2C(=O)c2c1nc(C(F)(F)F)n2Cc1cn(CCCN2CCCCC2)nn1` [Compound 16c]: in assay [3], the “selectivity of parent naphthoimidazole analogues” value was 2.77 and the IC50 was 2.6 µM.
`Cc1nc2c(n1CCCN1CCCCC1)C(=O)c1ccccc1C2=O` [Compound 18]: in assay [3], the “selectivity of parent naphthoimidazole analogues” value is recorded as 3.59 and the IC50 was 6.4 µM.
Take `CC(C)=CCC1=C(O)C(=O)c2ccccc2C1=O` [Lapachol]: in [4] (Table S1 comparison), the “Selectivity Notes (Table S1)” value is given as “Limited”. Moreover, the IC50 in assay [4] (setting [8]) is 25 µM.
As for `O=C(O)c1nn(Cc2ccc(Cl)cc2Cl)c2ccccc12` [Lonidamine], the “Selectivity Notes (Table S1)” value with Hexokinase II (Table S1 comparison) is on record as “Low”. For the same compound, at Hexokinase II (setting [8]), the IC50 is 170 µM.
For `O=C(CCc1ccc(O)cc1)c1c(O)cc(O)cc1O` [Phloretin], the “Selectivity Notes (Table S1)” value in the assay with GLUT1 (Table S1 comparison) is “Limited”. The IC50 in the assay with GLUT1 (setting [8]) is approximately 2 µM.
`CC(C)=CC[C@@H](O)C1=CC(=O)c2c(O)ccc(O)c2C1=O` [Shikonin]: the “Selectivity Notes (Table S1)” value in assay [5] (Table S1 comparison) is on record as “Low”. In addition, in assay [5] (setting [8]), the IC50 is 19.9 µM.
As for `COCCn1c2c([n+](Cc3cnccn3)c1C)C(=O)c1ccccc1C2=O` [YM155], the “Selectivity Notes (Table S1)” value in assay [6] (Table S1 comparison) was 18. Moreover, the IC50 in assay [6] (setting [8]) is 0.0137 µM.
In the case of `Cc1n(Cc2ccccc2)c2c([n+]1Cc1ccc(F)cc1)C(=O)c1ccccc1C2=O` [cRIPGBM], the “Selectivity Notes (Table S1)” value in assay [7] (Table S1 comparison) is listed as “Variable, brain-specific”. The IC50 in [7] (setting [8]) is 0.027 µM.
